Source: ChEMBL document CHEMBL3739380, “Discovery of benzothiazoles as antimycobacterial agents: Synthesis, structure-activity relationships and binding studies with Mycobacterium tuberculosis decaprenylphosphoryl-β-D-ribose 2'-oxidase” (Bioorg Med Chem, 2015)
pIC50: −log10 of the molar value. In brackets after ≈: the same amount, converted by molar mass.

What was measured:
[1] = Inhibition of Mycobacterium tuberculosis DprE1 using farnesyl-phosphoryl-beta-D-ribofuranose as substrate preincubated for 30 mins before substrate addition by peroxidase coupled assay
[2] = tested on: Mycobacterium tuberculosis; assay: Antimycobacterial activity against Mycobacterium tuberculosis H37Rv ATCC 27294 after 5 days by microdilution method; type: functional; conditions: H37Rv ATCC 27294, 120 h
[3] = tested on: Mycobacterium tuberculosis; assay: Antimycobacterial activity against Mycobacterium tuberculosis H37Rv ATCC 27294 after 2 to 3 weeks by turbidity assay; type: functional
[4] = tested on: Mycobacterium tuberculosis; assay: Antimycobacterial activity against Mycobacterium tuberculosis H37Rv ATCC 27294 assessed as log reduction CFU after 7 days by killing kinetic assay; type: functional
[5] = target: Cytochrome P450 2C9 (Homo sapiens, UniProt P11712); assay: Inhibition of human recombinant CYP2C9 by fluorescence assay; type: ADME
Sequence of Cytochrome P450 2C9 (P11712 whole entry): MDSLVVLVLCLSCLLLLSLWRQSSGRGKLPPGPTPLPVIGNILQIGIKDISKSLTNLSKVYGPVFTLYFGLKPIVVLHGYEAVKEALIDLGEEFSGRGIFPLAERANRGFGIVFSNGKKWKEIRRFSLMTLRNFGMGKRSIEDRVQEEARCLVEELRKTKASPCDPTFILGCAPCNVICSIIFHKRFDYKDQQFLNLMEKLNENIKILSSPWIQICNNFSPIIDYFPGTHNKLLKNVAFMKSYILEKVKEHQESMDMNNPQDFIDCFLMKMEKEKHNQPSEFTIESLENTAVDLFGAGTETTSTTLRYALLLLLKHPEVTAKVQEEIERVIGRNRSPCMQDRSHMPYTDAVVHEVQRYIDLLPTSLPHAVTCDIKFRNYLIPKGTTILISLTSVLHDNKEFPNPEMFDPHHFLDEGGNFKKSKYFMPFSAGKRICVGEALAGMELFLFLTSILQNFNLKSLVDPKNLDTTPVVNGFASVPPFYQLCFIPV

[6] = target: T1, Cytochrome P450 1A2 (Homo sapiens, UniProt P05177); assay: Inhibition of human recombinant CYP1A2 by fluorescence assay; type: ADME
T1 sequence (P05177 whole entry): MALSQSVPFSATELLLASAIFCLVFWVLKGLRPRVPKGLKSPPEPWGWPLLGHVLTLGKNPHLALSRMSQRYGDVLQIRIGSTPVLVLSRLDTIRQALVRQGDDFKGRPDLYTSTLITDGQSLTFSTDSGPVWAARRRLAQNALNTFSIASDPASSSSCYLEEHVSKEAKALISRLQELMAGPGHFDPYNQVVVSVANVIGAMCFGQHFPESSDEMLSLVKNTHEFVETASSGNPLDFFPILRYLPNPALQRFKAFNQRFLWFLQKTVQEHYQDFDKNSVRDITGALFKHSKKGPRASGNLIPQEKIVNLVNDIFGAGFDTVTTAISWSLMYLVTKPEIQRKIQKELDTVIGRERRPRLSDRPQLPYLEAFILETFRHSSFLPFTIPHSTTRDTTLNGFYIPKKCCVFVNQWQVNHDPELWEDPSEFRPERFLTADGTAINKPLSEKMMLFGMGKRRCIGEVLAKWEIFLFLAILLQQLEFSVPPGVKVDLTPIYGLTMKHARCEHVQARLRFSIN

[7] = target: Cytochrome P450 2D6 (Homo sapiens, UniProt P10635); assay: Inhibition of human recombinant CYP2D6 by fluorescence assay; type: ADME
Sequence of Cytochrome P450 2D6 (P10635 whole entry): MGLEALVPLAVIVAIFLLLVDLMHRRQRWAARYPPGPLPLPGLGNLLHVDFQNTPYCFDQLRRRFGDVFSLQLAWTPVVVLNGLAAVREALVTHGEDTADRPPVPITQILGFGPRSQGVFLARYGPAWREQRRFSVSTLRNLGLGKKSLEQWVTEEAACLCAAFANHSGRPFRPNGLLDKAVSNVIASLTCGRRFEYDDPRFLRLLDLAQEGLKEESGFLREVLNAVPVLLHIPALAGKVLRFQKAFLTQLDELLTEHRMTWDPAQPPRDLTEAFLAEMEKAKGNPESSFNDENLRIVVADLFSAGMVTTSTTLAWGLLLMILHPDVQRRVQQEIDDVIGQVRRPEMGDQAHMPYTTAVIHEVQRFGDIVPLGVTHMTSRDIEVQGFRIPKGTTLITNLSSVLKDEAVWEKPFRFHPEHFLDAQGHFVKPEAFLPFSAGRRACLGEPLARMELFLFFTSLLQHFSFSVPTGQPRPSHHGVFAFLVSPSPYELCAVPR

[8] = target: Cytochrome P450 2C19 (Homo sapiens, UniProt P33261); assay: Inhibition of human recombinant CYP2C19 by fluorescence assay; type: ADME
Sequence of Cytochrome P450 2C19 (P33261 whole entry): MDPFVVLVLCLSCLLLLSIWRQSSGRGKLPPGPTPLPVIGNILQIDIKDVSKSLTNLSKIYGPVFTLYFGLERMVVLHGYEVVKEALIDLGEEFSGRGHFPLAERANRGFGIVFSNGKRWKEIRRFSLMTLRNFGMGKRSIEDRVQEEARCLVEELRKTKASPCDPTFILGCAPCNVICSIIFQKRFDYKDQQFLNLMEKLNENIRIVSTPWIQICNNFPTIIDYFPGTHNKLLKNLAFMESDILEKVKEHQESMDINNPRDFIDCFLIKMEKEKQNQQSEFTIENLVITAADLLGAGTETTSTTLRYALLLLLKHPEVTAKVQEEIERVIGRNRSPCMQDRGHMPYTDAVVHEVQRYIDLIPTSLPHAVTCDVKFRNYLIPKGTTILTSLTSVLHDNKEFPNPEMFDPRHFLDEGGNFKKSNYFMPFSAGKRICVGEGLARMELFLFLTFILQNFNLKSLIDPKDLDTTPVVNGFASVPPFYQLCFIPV

[9] = target: Cytochrome P450 3A4 (Homo sapiens, UniProt P08684); assay: Inhibition of human recombinant CYP3A4 by fluorescence assay; type: ADME
Sequence of Cytochrome P450 3A4 (P08684 whole entry): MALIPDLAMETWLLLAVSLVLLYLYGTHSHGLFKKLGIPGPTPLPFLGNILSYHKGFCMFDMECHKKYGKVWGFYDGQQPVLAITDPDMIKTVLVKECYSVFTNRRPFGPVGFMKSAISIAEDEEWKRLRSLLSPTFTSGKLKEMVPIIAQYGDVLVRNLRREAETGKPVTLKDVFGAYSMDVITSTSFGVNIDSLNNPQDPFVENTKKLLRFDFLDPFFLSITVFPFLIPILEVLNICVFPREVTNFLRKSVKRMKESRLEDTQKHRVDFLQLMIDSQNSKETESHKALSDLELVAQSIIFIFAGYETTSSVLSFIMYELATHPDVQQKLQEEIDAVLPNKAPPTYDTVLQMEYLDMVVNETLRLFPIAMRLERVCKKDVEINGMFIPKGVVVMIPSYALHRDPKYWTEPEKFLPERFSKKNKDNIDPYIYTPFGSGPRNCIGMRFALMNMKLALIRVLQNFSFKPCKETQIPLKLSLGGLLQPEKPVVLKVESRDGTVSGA

[10] = tested on: A549; assay: Cytotoxicity against human A549 cells after 72 hrs by fluorescence assay; type: cell-based; conditions: A549, 72 h
[11] = Aqueous solubility of the compound; type: physicochemical; conditions: buffer
[12] = Fraction unbound in mouse plasma protein; type: ADME, cell-free
[13] = Intrinsic clearance in mouse liver microsomes; type: ADME; conditions: read-out: CLH
[14] = Clearance in iv dosed mouse; type: ADME, organism-based; conditions: in vivo
[15] = AUC100 in po dosed mouse; type: ADME, organism-based; conditions: in vivo
[16] = Volume of distribution at steady state in mouse; type: ADME, organism-based; conditions: in vivo, read-out: Vdss
[17] = tested on: Salmonella typhimurium; assay: Genotoxicity in Salmonella typhimurium TA98 at 5000 ug/plate by Ames test in absence of S9 fraction; type: toxicity, organism-based; conditions: salmonella enterica subsp. enterica serovar typhimurium
[18] = tested on: Salmonella typhimurium; assay: Genotoxicity in Salmonella typhimurium TA100 at 5000 ug/plate by Ames test in absence of S9 fraction; type: toxicity, organism-based; conditions: salmonella enterica subsp. enterica serovar typhimurium
[19] = tested on: Salmonella typhimurium; assay: Genotoxicity in Salmonella typhimurium TA98 at 5000 ug/plate by Ames test in presence of S9 fraction; type: toxicity, organism-based; conditions: salmonella enterica subsp. enterica serovar typhimurium
[20] = tested on: Salmonella typhimurium; assay: Genotoxicity in Salmonella typhimurium TA100 at 5000 ug/plate by Ames test in presence of S9 fraction; type: toxicity, organism-based; conditions: salmonella enterica subsp. enterica serovar typhimurium
[21] = tested on: Mycobacterium tuberculosis; assay: Antimycobacterial activity against Mycobacterium tuberculosis H37Rv ATCC 27294 infected in BMDM assessed as log reduction CFU after 7 days by killing kinetic assay; type: functional
[22] = tested on: Mycobacterium tuberculosis; assay: Antimycobacterial activity against Mycobacterium tuberculosis H37Rv ATCC 27294 infected in human THP1 cells assessed as log reduction CFU after 7 days by killing kinetic assay; type: functional, THP-1
[23] = tested on: Salmonella typhimurium; assay: Genotoxicity in Salmonella typhimurium TA100 at 50 ug/plate by Ames test in absence of S9 fraction; type: toxicity, organism-based; conditions: salmonella enterica subsp. enterica serovar typhimurium
[24] = tested on: Salmonella typhimurium; assay: Genotoxicity in Salmonella typhimurium TA100 at 16 ug/plate by Ames test in presence of S9 fraction; type: toxicity, organism-based; conditions: salmonella enterica subsp. enterica serovar typhimurium
[25] = tested on: Salmonella typhimurium; assay: Genotoxicity in Salmonella typhimurium TA98 at 500 ug/plate by Ames test in absence of S9 fraction; type: toxicity, organism-based; conditions: salmonella enterica subsp. enterica serovar typhimurium
[26] = tested on: Salmonella typhimurium; assay: Genotoxicity in Salmonella typhimurium TA98 at 500 ug/plate by Ames test in presence of S9 fraction; type: toxicity, organism-based; conditions: salmonella enterica subsp. enterica serovar typhimurium
[27] = tested on: Salmonella typhimurium; assay: Genotoxicity in Salmonella typhimurium TA98 at 50 ug/plate by Ames test in presence of S9 fraction; type: toxicity, organism-based; conditions: salmonella enterica subsp. enterica serovar typhimurium
[28] = tested on: Salmonella typhimurium; assay: Genotoxicity in Salmonella typhimurium TA98 at 160 ug/plate by Ames test in absence of S9 fraction; type: toxicity, organism-based; conditions: salmonella enterica subsp. enterica serovar typhimurium

O=C(NCc1ccccn1)c1sc2c([N+](=O)[O-])cc(C(F)(F)F)cc2[n+]1[O-]
pIC50 [1]: 7.59 | MIC [2]: 0.02 µg/mL (≈ 0.0502 µM) | MIC [3]: 0.01 µg/mL (≈ 0.0251 µM) | Activity [4]: 2.5 log10CFU/ml

COCCN1CCN(C(=O)c2nc3cc(C(F)(F)F)c(C)c([N+](=O)[O-])c3s2)CC1
IC50 [5]: Not Active | pIC50 [6]: 5.02 | pIC50 [1]: 5.77 | MIC [2]: 2 µg/mL (≈ 4.63 µM) | pIC50 [7]: 4.23 | pIC50 [8]: 4.19 | pIC50 [9]: 4.02 | pIC50 [10]: 4.00 | solubility [11]: 73 µM (≈ 31.6 µg/mL) | fraction unbound [12]: 0.043 | microsomal CLint [13]: < 4 µL/min/mg | clearance [14]: 146 mL/min/kg | AUC [15]: 570 ng·h/mL | Vd [16]: 24.5 L/kg | MIC [3]: 2 µg/mL (≈ 4.63 µM) | Activity [17]: Non-toxic | Activity [18]: Non-toxic | Activity [19]: Non-toxic | Activity [20]: Non-toxic

N#Cc1cc([N+](=O)[O-])c2sc(C(=O)N3CCCCC3)nc2c1
pIC50 [1]: 5.74 | MIC [2]: 1 µg/mL (≈ 3.16 µM)

O=C(NCc1ccccn1)c1nc2cc(C(F)(F)F)cc([N+](=O)[O-])c2s1
pIC50 [1]: 6.34 | MIC [2]: 0.6 µg/mL (≈ 1.57 µM) | MIC [3]: 0.12 µg/mL (≈ 0.314 µM) | Activity [4]: 2.5 log10CFU/ml | Activity [21]: 1 log10CFU/ml | Activity [22]: 1 log10CFU/ml

CNC(=O)c1cc([N+](=O)[O-])c2sc(C(=O)N3CCCCC3)nc2c1
pIC50 [1]: 4.28 | MIC [2]: 32 µg/mL (≈ 91.9 µM)

C[C@H](NC(=O)c1sc2c([N+](=O)[O-])cc(C(F)(F)F)cc2[n+]1[O-])C(=O)C1CCCC1
pIC50 [1]: 7.22 | MIC [2]: 0.02 µg/mL (≈ 0.0464 µM) | Activity [21]: 1 log10CFU/ml | Activity [22]: 1 log10CFU/ml

Cc1c(C(F)(F)F)cc2nc(C(=O)N3CCCCC3)sc2c1[N+](=O)[O-]
pIC50 [1]: 5.66 | MIC [2]: 0.25 µg/mL (≈ 0.67 µM) | MIC [3]: 0.5 µg/mL (≈ 1.34 µM) | Activity [17]: Non-toxic | Activity [18]: Non-toxic | Activity [19]: Non-toxic | Activity [20]: Non-toxic

COCCN1CCN(C(=O)c2nc3cc(C(F)(F)F)cc([N+](=O)[O-])c3s2)CC1
IC50 [5]: Not Active | pIC50 [6]: 4.75 | pIC50 [1]: 6.61 | MIC [2]: 0.21 µg/mL (≈ 0.502 µM) | pIC50 [7]: 5.28 | pIC50 [8]: 4.25 | pIC50 [9]: 4.71 | pIC50 [10]: 4.05 | solubility [11]: 331 µM (≈ 138 µg/mL) | fraction unbound [12]: 0.061 | microsomal CLint [13]: 25 µL/min/mg | Activity [23]: Toxic | Activity [24]: Toxic | Activity [25]: Toxic | Activity [26]: Toxic

O=[N+]([O-])c1cc(C(F)(F)F)cc2c1sc(C1=NCCO1)[n+]2[O-]
pIC50 [1]: 6.56 | MIC [2]: 0.4 µg/mL (≈ 1.2 µM) | Activity [23]: Toxic | Activity [27]: Toxic | Activity [24]: Toxic | Activity [28]: Toxic

O=C(c1sc2c([N+](=O)[O-])cc(C(F)(F)F)cc2[n+]1[O-])N1CCCCC1
pIC50 ([5]; read-out: IC50): 4.58 | pIC50 [6]: 4.83 | pIC50 [1]: 7.02 | MIC [2]: 0.03 µg/mL (≈ 0.0799 µM) | pIC50 [7]: 5.92 | pIC50 [8]: 4.75 | pIC50 [9]: 5.41 | pIC50 [10]: 4.62 | solubility [11]: 84.7 µM (≈ 31.8 µg/mL) | fraction unbound [12]: 0.103 | microsomal CLint [13]: 102 µL/min/mg | Activity [23]: Toxic | Activity [27]: Toxic | Activity [24]: Toxic | Activity [28]: Toxic

Cc1c(C(F)(F)F)cc2nc(C3=NCCO3)sc2c1[N+](=O)[O-]
pIC50 [1]: 5.41 | MIC [2]: 8 µg/mL (≈ 24.1 µM) | Activity [17]: Non-toxic | Activity [18]: Non-toxic | Activity [19]: Non-toxic | Activity [20]: Non-toxic

Cc1c(C(F)(F)F)cc2nc(C(=O)N[C@@H](CCO)C(=O)N3CCCCC3)sc2c1[N+](=O)[O-]
pIC50 [1]: 5.92 | MIC [2]: 0.7 µg/mL (≈ 1.48 µM) | Activity [21]: 1 log10CFU/ml | Activity [22]: 1 log10CFU/ml

O=C(c1nc2cc(C(F)(F)F)cc(B(O)O)c2s1)N1CCCCC1
MIC [2]: > 32 µg/mL

O=C(N[C@@H](CO)C(=O)N1CCCC1)c1nc2cc(C(F)(F)F)cc([N+](=O)[O-])c2s1
pIC50 [1]: 6.46 | MIC [2]: 0.35 µg/mL (≈ 0.809 µM)
